Data taken from patent publication US11053204B2, “Pyrimidinyloxy benzene derivatives as herbicides” (FMC Corporation, priority 2015, dated 2021).

Assays:
Format in all cases: in vivo
[1] = system: giant foxtail (Setaria faberii); assay: Test A preemergence, visual injury rating
Method in brief: (§1)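 Greenhouse pot test, loam/sand soil. Formulation: non-phytotoxic solvent mix plus surfactant. Pre: directed spray onto soil after sowing. Post: plants at 1–2 leaf, 2–10 cm. Rated visually vs untreated controls at ~10 d, 0 (no effect) to 100 (complete control).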

kochia (Kochia scoparia) [2] = assay: Test A preemergence, visual injury rating
Method in brief: as §1

[3] = system: ragweed (common ragweed, Ambrosia elatior); assay: Test A preemergence, visual injury rating
Method in brief: as §1

[4] = system: barnyardgrass (Echinochloa crus-galli); assay: Test A preemergence, visual injury rating
Method in brief: as §1

[5] = system: pigweed (Amaranthus retroflexus); assay: Test A preemergence, visual injury rating
Method in brief: as §1

[6] = system: Italian ryegrass (Lolium multiflorum); assay: Test A preemergence, visual injury rating
Method in brief: as §1

[7] = system: galium (catchweed bedstraw, Galium aparine); assay: Test A postemergence, visual injury rating; details: 0 to 100 scale, 0 is no effect, 100 is complete control, approximately 10 days
Method in brief: as §1

[8] = system: giant foxtail (Setaria faberii); assay: Test A postemergence, visual injury rating; details: 0 to 100 scale, 0 is no effect, 100 is complete control, approximately 10 days
Method in brief: as §1

kochia (Kochia scoparia) [9] = assay: Test A postemergence, visual injury rating; details: 0 to 100 scale, 0 is no effect, 100 is complete control, approximately 10 days
Method in brief: as §1

[10] = system: ragweed (common ragweed, Ambrosia elatior); assay: Test A postemergence, visual injury rating; details: 0 to 100 scale, 0 is no effect, 100 is complete control, approximately 10 days
Method in brief: as §1

[11] = system: barnyardgrass (Echinochloa crus-galli); assay: Test A postemergence, visual injury rating; details: 0 to 100 scale, 0 is no effect, 100 is complete control, approximately 10 days
Method in brief: as §1

[12] = system: blackgrass (Alopecurus myosuroides); assay: Test A postemergence, visual injury rating; details: 0 to 100 scale, 0 is no effect, 100 is complete control, approximately 10 days
Method in brief: as §1

[13] = system: pigweed (Amaranthus retroflexus); assay: Test A postemergence, visual injury rating; details: 0 to 100 scale, 0 is no effect, 100 is complete control, approximately 10 days
Method in brief: as §1

[14] = system: Italian ryegrass (Lolium multiflorum); assay: Test A postemergence, visual injury rating; details: 0 to 100 scale, 0 is no effect, 100 is complete control, approximately 10 days
Method in brief: as §1

[15] = system: wheat (Triticum aestivum); assay: Test A postemergence, visual injury rating; details: 0 to 100 scale, 0 is no effect, 100 is complete control, approximately 10 days
Method in brief: as §1

corn (Zea mays) = assay: Test A postemergence, visual injury rating; details: 0 to 100 scale, 0 is no effect, 100 is complete control, approximately 10 days
Method in brief: as §1

rice (Oryza sativa) = assay: Test B flooded paddy test, plant response rating; details: 250 g ai/ha; Flood; scale of 0 to 100 where 0 is no effect and 100 is complete control; 13 to 15 days
Method in brief: (§2)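 Flooded 3 cm over soil; compound into paddy water; depth kept constant. Greenhouse 13–15 d.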

[16] = system: ducksalad (Heteranthera limosa); assay: Test B flooded paddy test, plant response rating; details: 250 g ai/ha; Flood; scale of 0 to 100 where 0 is no effect and 100 is complete control; 13 to 15 days
Method in brief: as §2

[17] = system: barnyardgrass (Echinochloa crus-galli); assay: Test B flooded paddy test, plant response rating; details: 250 g ai/ha; Flood; scale of 0 to 100 where 0 is no effect and 100 is complete control; 13 to 15 days
Method in brief: as §2

[18] = system: sedge, umbrella (small-flower umbrella sedge, Cyperus difformis); assay: Test B flooded paddy test, plant response rating; details: 250 g ai/ha; Flood; scale of 0 to 100 where 0 is no effect and 100 is complete control; 13 to 15 days
Method in brief: as §2

[19] = 31 g ai/ha, 0 to 100 scale, 0 no effect, 100 complete control
[20] = 125 g ai/ha, 0 to 100 scale (0 no effect, 100 complete control)

Compound | Plant response rating, Foxtail, Giant [1, 19] | Plant response rating, Foxtail, Giant [1, 20] | Plant response rating, Kochia (kochia (Kochia scoparia) [2]; [19]) | Plant response rating, Kochia (kochia (Kochia scoparia) [2]; [20]) | Plant response rating, Ragweed [3, 19] | Plant response rating, Ragweed [3, 20] | Plant response rating, Barnyardgrass [4, 19] | Plant response rating, Barnyardgrass [4, 20] | Plant response rating, Pigweed [5, 19] | Plant response rating, Pigweed [5, 20] | Plant response rating, Ryegrass, Italian [6, 19] | Plant response rating, Ryegrass, Italian [6, 20] | Galium plant response rating ([7]; 31 g ai/ha) | Galium plant response rating ([7]; 125 g ai/ha) | Foxtail, Giant plant response rating ([8]; 31 g ai/ha) | Foxtail, Giant plant response rating ([8]; 125 g ai/ha) | Kochia plant response rating (kochia (Kochia scoparia) [9]; 31 g ai/ha) | Kochia plant response rating (kochia (Kochia scoparia) [9]; 125 g ai/ha) | Ragweed plant response rating ([10]; 31 g ai/ha) | Ragweed plant response rating ([10]; 125 g ai/ha) | also measured
O=C(OCCC(F)(F)F)c1c(OCC(F)(F)F)cccc1Oc1ncc(Cl)cn1 [Compound 117] | 0 | 20 | 0 | 0 | 0 | 0 | 0 | 0 | 0 | 30 | 0 | 0 | 60 | 100 | 0 | 10 | 20 | 50 | 0 | 20 | Barnyardgrass plant response rating ([11]; 31 g ai/ha): 0; Barnyardgrass plant response rating ([11]; 125 g ai/ha): 10; Blackgrass plant response rating ([12]; 31 g ai/ha): 0; Blackgrass plant response rating ([12]; 125 g ai/ha): 10; Pigweed plant response rating ([13]; 31 g ai/ha): 30; Pigweed plant response rating ([13]; 125 g ai/ha): 70; Ryegrass, Italian plant response rating ([14]; 31 g ai/ha): 0; Ryegrass, Italian plant response rating ([14]; 125 g ai/ha): 0; Wheat plant response rating ([15]; 31 g ai/ha): 0; Wheat plant response rating ([15]; 125 g ai/ha): 0; Corn plant response rating (corn (Zea mays); 31 g ai/ha): 10; Corn plant response rating (corn (Zea mays); 125 g ai/ha): 10; Plant response rating, Rice (rice (Oryza sativa)): 0; Plant response rating, Ducksalad [16]: 20; Plant response rating, Barnyardgrass [17]: 0; Plant response rating, Sedge, Umbrella [18]: 60
CCCC(C#N)c1c(Br)cccc1Oc1ncc(Cl)cn1 (stereo not drawn) [Compound 118] | 0 | 20 | 0 | 0 | 100 | 50 | 0 | 0 | 20 | 50 | 0 | 0 | 10 | 30 | 0 | 10 | 30 | 60 | 0 | 10 | Barnyardgrass plant response rating ([11]; 31 g ai/ha): 0; Barnyardgrass plant response rating ([11]; 125 g ai/ha): 10; Blackgrass plant response rating ([12]; 31 g ai/ha): 0; Blackgrass plant response rating ([12]; 125 g ai/ha): 0; Pigweed plant response rating ([13]; 31 g ai/ha): 40; Pigweed plant response rating ([13]; 125 g ai/ha): 60; Ryegrass, Italian plant response rating ([14]; 31 g ai/ha): 0; Ryegrass, Italian plant response rating ([14]; 125 g ai/ha): 0; Wheat plant response rating ([15]; 31 g ai/ha): 0; Wheat plant response rating ([15]; 125 g ai/ha): 0; Corn plant response rating (corn (Zea mays); 31 g ai/ha): 0; Corn plant response rating (corn (Zea mays); 125 g ai/ha): 10; Plant response rating, Rice (rice (Oryza sativa)): 0; Plant response rating, Ducksalad [16]: 0; Plant response rating, Barnyardgrass [17]: 0; Plant response rating, Sedge, Umbrella [18]: 50
FC(F)(F)CCCCCc1c(Br)cccc1Oc1ncc(Cl)cn1 [Compound 121] | 30 | 100 | 20 | 0 | 0 | 0 | 0 | 30 | 0 | 0 | 10 | 0 | 70 | 80 | 10 | 70 | 20 | 80 | 20 | 50 | Barnyardgrass plant response rating ([11]; 31 g ai/ha): 20; Barnyardgrass plant response rating ([11]; 125 g ai/ha): 40; Blackgrass plant response rating ([12]; 31 g ai/ha): 20; Blackgrass plant response rating ([12]; 125 g ai/ha): 30; Pigweed plant response rating ([13]; 31 g ai/ha): 80; Pigweed plant response rating ([13]; 125 g ai/ha): 100; Ryegrass, Italian plant response rating ([14]; 31 g ai/ha): 10; Ryegrass, Italian plant response rating ([14]; 125 g ai/ha): 20; Wheat plant response rating ([15]; 31 g ai/ha): 10; Wheat plant response rating ([15]; 125 g ai/ha): 10; Corn plant response rating (corn (Zea mays); 31 g ai/ha): 10; Corn plant response rating (corn (Zea mays); 125 g ai/ha): 10; Plant response rating, Rice (rice (Oryza sativa)): 35; Plant response rating, Ducksalad [16]: 0; Plant response rating, Barnyardgrass [17]: 50; Plant response rating, Sedge, Umbrella [18]: 70
FC(F)(F)CCCc1c(Cl)cccc1Oc1ncc(Cl)cn1 [Compound 122] | 0 | 40 | 10 | 70 | 0 | 0 | 30 | 90 | 40 | 90 | 0 | 30 | 30 | 60 | 10 | 40 | 80 | 80 | 0 | 10 | Barnyardgrass plant response rating ([11]; 31 g ai/ha): 10; Barnyardgrass plant response rating ([11]; 125 g ai/ha): 50; Blackgrass plant response rating ([12]; 31 g ai/ha): 20; Blackgrass plant response rating ([12]; 125 g ai/ha): 60; Pigweed plant response rating ([13]; 31 g ai/ha): 70; Pigweed plant response rating ([13]; 125 g ai/ha): 100; Ryegrass, Italian plant response rating ([14]; 31 g ai/ha): 0; Ryegrass, Italian plant response rating ([14]; 125 g ai/ha): 20; Wheat plant response rating ([15]; 31 g ai/ha): 0; Wheat plant response rating ([15]; 125 g ai/ha): 0; Corn plant response rating (corn (Zea mays); 31 g ai/ha): 10; Corn plant response rating (corn (Zea mays); 125 g ai/ha): 20; Plant response rating, Rice (rice (Oryza sativa)): 40; Plant response rating, Ducksalad [16]: 100; Plant response rating, Barnyardgrass [17]: 80; Plant response rating, Sedge, Umbrella [18]: 100
O=C(OCCC1CC1)c1c(Br)cccc1Oc1ncc(Cl)cn1 [Compound 123] | 40 | 100 | 0 | 10 | 0 | 0 | 20 | 70 | 0 | 80 | 0 | 20 | 90 | 100 | 20 | 50 | 50 | 90 | 0 | 10 | Barnyardgrass plant response rating ([11]; 31 g ai/ha): 10; Barnyardgrass plant response rating ([11]; 125 g ai/ha): 50; Blackgrass plant response rating ([12]; 31 g ai/ha): 10; Blackgrass plant response rating ([12]; 125 g ai/ha): 50; Pigweed plant response rating ([13]; 31 g ai/ha): 70; Pigweed plant response rating ([13]; 125 g ai/ha): 100; Ryegrass, Italian plant response rating ([14]; 31 g ai/ha): 0; Ryegrass, Italian plant response rating ([14]; 125 g ai/ha): 20; Wheat plant response rating ([15]; 31 g ai/ha): 0; Wheat plant response rating ([15]; 125 g ai/ha): 0; Corn plant response rating (corn (Zea mays); 31 g ai/ha): 10; Corn plant response rating (corn (Zea mays); 125 g ai/ha): 10; Plant response rating, Rice (rice (Oryza sativa)): 35; Plant response rating, Ducksalad [16]: 95; Plant response rating, Barnyardgrass [17]: 40; Plant response rating, Sedge, Umbrella [18]: 95
